Reference: patent US20230339916A1, “PLANT GROWTH REGULATOR COMPOUNDS” (SYNGENTA CROP PROTECTION AG, priority 2020, published 2023)
pIC50: −log10 of the molar value.

The compounds below were run on Corn leaf discs (variety Multitop) (assay: Dark induced senescence of corn leaf). Conditions: Zea mays, foliar, 192 h; corn leaf discs in the dark, 23° C., 75% humidity, 8 days; 100 μM-0.0001 μM, 0.5% DMSO; image analysis; read-out: IC50 (concentration at which 50% senescence was achieved).
Format: in vivo
Protocol: Corn plants of variety Multitop were grown in a greenhouse with relative 75% humidity and at 23-25° C. for 6 weeks. 1.4 cm diameter leaf discs were placed into 24-well plates containing test compounds in a concentration gradient (100 μM-0.0001 μM) at a final concentration of 0.5% DMSO. Each concentration was tested in 12 replicates. Plates were sealed with seal foil. The foil was pierced to provide gas exchange in each well. The plates were placed into the completely dark climatic chamber. Plates were incubated in the chamber with 75% humidity and at 23° C. for 8 days. On days 0, 5, 6, 7 and 8 photographs were taken of each plate, and image analysis conducted with a macro developed using the ImageJ software. The image analysis was used to determine the concentration at which 50% senescence was achieved (IC50), see Table 3. The lower the value, the higher senescence induction potency.

| pIC50 | Compound |
| --- | --- |
| > 5.52 | CCOC(=O)/C(=C/OC1C=C(C)C(=O)O1)n1ccc2cc(C(F)(F)F)ccc21 (stereo not shown) [Compound I-2-Z, ethyl (Z)-3-[(4-methyl-5-oxo-2H-furan-2-yl)oxy]-2-[5-(trifluoromethyl)indol-1-yl]prop-2-enoate] |
| > 5.52 | CNC(=O)/C(=C/OC1OC(=O)C(C)=C1C)n1cc(C#N)c2ccccc21 (stereo not shown) [Compound I-83-Z, (Z)-2-(3-cyanoindol-1-yl)-3-[(3,4-dimethyl-5-oxo-2H-furan-2-yl)oxy]-N-methyl-prop-2-enamide] |
| > 5.52 | CCOC(=O)/C(=C/OC1C=C(C)C(=O)O1)n1nc(F)c2ccccc21 (stereo not shown) [Compound I-50-Z, ethyl (Z)-2-(3-fluoroindazol-1-yl)-3-[(4-methyl-5-oxo-2H-furan-2-yl)oxy]prop-2-enoate] |
| > 5.52 | CCOC(=O)/C(=C/OC1OC(=O)C(C)=C1C)N1CCc2cc(Br)ccc21 (stereo not shown) [Compound I-73-Z, ethyl (Z)-2-(5-bromoindolin-1-yl)-3-[(3,4-dimethyl-5-oxo-2H-furan-2-yl)oxy]prop-2-enoate] |
| > 5.52 | CCOC(=O)/C(=C/OC1C=C(C)C(=O)O1)n1c(=O)sc2ccccc21 (stereo not shown) [Compound I-64-Z, ethyl (Z)-3-[(4-methyl-5-oxo-2H-furan-2-yl)oxy]-2-(2-oxo-1,3-benzothiazol-3-yl)prop-2-enoate] |
| > 5.52 | CCOC(=O)/C(=C/OC1OC(=O)C(C)=C1C)n1ccc2nccnc21 (stereo not shown) [Compound I-90-Z, ethyl (Z)-3-[(3,4-dimethyl-5-oxo-2H-furan-2-yl)oxy]-2-pyrrolo[2,3-b]pyrazin-5-yl-prop-2-enoate] |
| > 5.52 | CCOC(=O)/C(=C/OC1C=C(C)C(=O)O1)N1C(=O)CSc2ccccc21 (stereo not shown) [Compound I-78-Z, ethyl (Z)-3-[(4-methyl-5-oxo-2H-furan-2-yl)oxy]-2-(3-oxo-1,4-benzothiazin-4-yl)prop-2-enoate] |
| > 5.52 | CCOC(=O)/C(=C/OC1OC(=O)C(C)=C1C)n1c(=O)sc2ccccc21 (stereo not shown) [Compound I-65-Z] |
| > 5.52 | CCOC(=O)/C(=C/OC1OC(=O)C(C)=C1C)N1C(=O)CSc2ccccc21 (stereo not shown) [Compound I-79-Z, ethyl (Z)-3-[(3,4-dimethyl-5-oxo-2H-furan-2-yl)oxy]-2-(3-oxo-1,4-benzothiazin-4-yl)prop-2-enoate] |
| > 5.52 | CCOC(=O)/C(=C/OC1OC(=O)C(C)=C1C)n1nc(C)c(C)c1C (stereo not shown) [Compound I-81-Z, ethyl (Z)-3-[(3,4-dimethyl-5-oxo-2H-furan-2-yl)oxy]-2-(3,4,5-trimethylpyrazol-1-yl)prop-2-enoate] |
| > 5.52 | CCOC(=O)/C(=C/OC1OC(=O)C(C)=C1C)n1ccc2cc(-c3ccccc3)ccc21 (stereo not shown) [Compound I-11-Z, ethyl (Z)-3-[(3,4-dimethyl-5-oxo-2H-furan-2-yl)oxy]-2-(5-phenylindol-1-yl)prop-2-enoate] |
| > 5.52 | CCOC(=O)/C(=C/OC1OC(=O)C(C)=C1C)n1cc(C#N)c2ccccc21 (stereo not shown) [Compound I-26-Z, ethyl (Z)-2-(3-cyanoindol-1-yl)-3-[(3,4-dimethyl-5-oxo-2H-furan-2-yl)oxy]prop-2-enoate] |
| > 5.52 | CCOC(=O)/C(=C/OC1OC(=O)C(C)=C1C)n1cnc2c(N(C)C)nc(F)nc21 (stereo not shown) [Compound I-61-Z, ethyl (Z)-2-[6-(dimethylamino)-2-fluoro-purin-9-yl]-3-[(3,4-dimethyl-5-oxo-2H-furan-2-yl)oxy]prop-2-enoate] |
